Measured values taken from US20240279612A1, “LIVER ORGANOID MANUFACTURING METHODS, LIVER ORGANOIDS OBTAINED WITH THE SAME, AND USES THEREOF” (INSTITUT NATIONAL DE LA SANTÉ ET DE LA RECHERCHE MÉDICALE, priority 2021, published 2024).
Like-named read-outs stand apart in the source and are kept apart here.

Columns and labels:
CYP1A2 = assay: Induction of CYP1A2 activity (phenacetin to acetaminophen, LC-MS/MS) in PHH; format: in vitro ADME, human; conditions: PHH model, omeprazole 50 μM for 3 days, versus basal (DMSO 0.1%)
Description: (§1) The primary human hepatocyte (PHH) cell line was obtained from four different healthy donors. PHH cells culture was performed according to the LONZA protocol (described in Document #BR-CryoHep-1 07/20 www.bioscience.lonza.com © 2020 Lonza Walkersville, Inc) with cell seeding at 70,000 cells/well in collagen I-coated 96-well plates (Corning® BioCoat™ Collagen I 96 Clear Well Plate). One hour after seeding, the PHH cells were cultured by the Sandwich method using Matrigel (Corning® Matrigel® Matrix) according to the protocol described in Gijbels et al. (Experimental Cholestasis Research, 2019). PHH cells were used 3 days later (short duration) or 2 weeks later (long duration) for the experiments. PHH cell line was cultivated at 37° C. in a humidified atmosphere with 5% CO2.
(§2) PHH and LO grown in 96-well plates were treated by adding 200 μl/well and HLCs in 6-well plates by adding 1 ml/well of CYP's inductors in a hepatocyte culture medium (HCM) without EGF (Lonza—CC-3198).
(§3) CYPs were induced by different types of inducers (SIGMA) at different concentrations for 3 days (as detailed in TABLE 3): Omeprazole (50 μM), Rifampicin (10 μM), Imidazole (500 μM), Phenobarbital (500 μM) and CITCO (1 μM). A control condition (namely “basal”) is performed with DMSO […] instead of inducer. […]

CYP2B6 = assay: Induction of CYP2B6 activity (bupropion to hydroxybupropion, LC-MS/MS) in PHH; conditions: PHH model, versus basal (DMSO 0.1%)
Description: as §1, §2, §3

liver organoid (LO) [1] = conditions: 48 h
Description: Steatosis was induced by amiodarone at 20 μM or ethanol at […] for 2 days after the end of differentiation (Day 28). After fixation of the cells with paraformaldehyde (PFA 4% in PBS) for 15 minutes at room temperature, the lipids were labelled with Nile Red (50 ng/ml) for 1 hour at room temperature and then washed three times with PBS (1000 μl). At this step, samples can be stored in PBS at 4° C.
(§4) After the acquisition of different Z-stacks of the LOs, the images were analyzed and quantified by the image analysis software Metaxpress developed by Molecular Devices.

liver organoid (LO) [2] = assay: Internalization of LDL-bodipy by liver organoids; format: cell-based, human; conditions: 20 hours, then 3 hours LDL-bodipy, compared to controls (FIG. 2)
Description: Treatment with mevastatin (20, 25 and 30 μg/ml) or DMSO (0.1%) was performed for 20 hours after the end of differentiation (Day 28). After treatment, LOs were incubated with LDL-bodipy (Invitrogen, Ref: L3483) for 3 hours (INVITROGEN). Finally, once the incubation with LDL-bodipy was completed, the scaffolds were washed three times with HCM medium (LONZA) at 37° C. and then the cells were fixed with paraformaldehyde (PFA 4% in PBS) for 15 minutes at room temperature. At this stage, the samples can be stored in PBS at 4° C.
as §4
Concerning LDL internalization, it was noted that the LO model significatively reacted to mevastatin at concentrations of 20, 25 and 30 ug/ml with an increase in LDL-bodipy internalization of 14, 18 and 26% respectively compared to controls (FIG. 2).

For `COc1ccc2[nH]c([S+]([O-])Cc3ncc(C)c(OC)c3C)nc2c1` (centres unmarked) [omeprazole, Omeprazole], the “induction of CYP1A2” value (CYP1A2) was 7.2 times.

For `CCC1(c2ccccc2)C(=O)NC(=O)NC1=O` [phenobarbital, Phenobarbital], the “induction of CYP2B6” value (CYP2B6; phenobarbital 500 μM for 3 days) was 5.8 times.

`CCO` [ethanol] was tested, and the “increase in lipid accumulation” value (liver organoid (LO) [1]; 0.1 µM) was 29%.

With `CC[C@H](C)C(=O)O[C@H]1CCC=C2C=C[C@H](C)[C@H](CC[C@@H]3C[C@@H](O)CC(=O)O3)[C@H]21` [mevastatin] the “increase in LDL-bodipy internalization” value (liver organoid (LO) [2]; mevastatin 20 ug/ml) was 14%, the “increase in LDL-bodipy internalization” value (liver organoid (LO) [2]; mevastatin 25 ug/ml) was 18% and the “increase in LDL-bodipy internalization” value (liver organoid (LO) [2]; mevastatin 30 ug/ml) was 26%.

`CCCCc1oc2ccccc2c1C(=O)c1cc(I)c(OCCN(CC)CC)c(I)c1` [amiodarone] was tested, and the “increase in lipid accumulation” value (liver organoid (LO) [1]; 40 µM) was 60%.

With `Clc1ccc(-c2nc3sccn3c2/C=N/OCc2ccc(Cl)c(Cl)c2)cc1` [CITCO] the “induction of CYP2B6” value (CYP2B6; CITCO 1 μM for 3 days) was 3.3 times.
